Results: patent US12162872B2, “Cycloalkylurea derivative” (Sumitomo Pharma Co., Ltd., priority 2019, dated 2024)

Target: T1, Human orexin receptor type 2 (Homo sapiens, UniProt O43614)
T1 construct: expressed in transfected cells; host or cells: CHO cells (transient expression)
T1 sequence (O43614 1-444): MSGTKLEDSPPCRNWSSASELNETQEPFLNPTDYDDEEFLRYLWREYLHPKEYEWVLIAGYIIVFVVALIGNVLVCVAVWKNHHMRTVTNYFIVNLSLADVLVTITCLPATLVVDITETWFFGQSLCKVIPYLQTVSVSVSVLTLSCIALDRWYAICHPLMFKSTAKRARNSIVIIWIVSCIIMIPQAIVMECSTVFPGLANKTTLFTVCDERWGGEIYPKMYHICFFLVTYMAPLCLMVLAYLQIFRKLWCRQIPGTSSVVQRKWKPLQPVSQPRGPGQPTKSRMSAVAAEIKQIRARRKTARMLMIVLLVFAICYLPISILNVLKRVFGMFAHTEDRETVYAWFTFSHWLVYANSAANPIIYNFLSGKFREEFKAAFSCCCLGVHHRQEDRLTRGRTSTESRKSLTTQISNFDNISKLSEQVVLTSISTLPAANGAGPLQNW
Assay: Test 2: Evaluation of agonist activity for orexin receptor type 2 (aequorin luminescence, intracellular calcium mobilization in CHO cells)
Type: cell-based
Conditions: relative percentage of luminescence for the luminescence (100%) of Orexin A (100 pM); CHO cells transiently expressing human orexin receptor type 2 and apoaequorin; Orexin A Lot. 671009
Method: Test 2: Evaluation of Agonist Activity for Orexin Receptor Type 2
Human orexin receptor type 2 and apoaequorin were transiently expressed in CHO cells, and the agonist activity was evaluated based on intracellular calcium mobilization with ligand stimulation. The CHO cells transiently-expressed human orexin receptor type 2 and apoaequorin were seeded on a 384-well plate by 2,000 cells/well, and then incubated for 16-22 hours. After the plate was returned to room temperature, Coelenterazine hcp (final concentration: 1 μM) was added to the plate, and the plate was allowed to stand at room temperature for 2 hours. And then, Orexin A (PEPTIDE INSTITUTE, INC., Lot. 671009) or each test compound was added to the plate, and the luminescence of the cells was measured with FDSS7000 (Hamamatsu Photonics K.K.), wherein Orexin A and each test compound were dissolved in DMSO (final concentration: 0.1%), and diluted with a buffer (Hanks, 20 mM HEPES, 0.1% BSA). The agonist activity of each test compound for orexin receptor type 2 was calculated as relative percentage of luminescence for the luminescence (100%) of Orexin A (100 pM).

Row | Structure (SMILES) | agonist activity (%)
1 | CC(C)n1cc(O[C@H]2CCCC(F)(F)[C@@H]2NC(=O)N2CCC(C)(c3noc(C4CC4)n3)CC2)cn1 [Example 90, 4-(5-cyclopropyl-1,2,4-oxadiazol-3-yl)-N-[(1R,6S)-2,2-difluoro-6-{[1-(propan-2-yl)-1H-pyrazol-4-yl]oxy}cyclohexyl]-4-methylpiperidine-1-carboxamide] | 112%
2 | CC(C)N1CC[C@H](N(Cc2ccccc2)[C@H]2CCCC(F)(F)[C@@H]2NC(=O)N2CCC(C)(c3noc([C@@H]4C[C@@H]4F)n3)CC2)C1 [Example 91, N-[(1R,6S)-6-{benzyl[(3S)-1-(propan-2-yl)pyrrolidin-3-yl]amino}-2,2-difluorocyclohexyl]-4-{5-[(1S,2S)-2-fluorocyclopropyl]-1,2,4-oxadiazol-3-yl}-4-methylpiperidine-1-carboxamide] | 243%
3 | CC(C)c1nccc(O[C@H]2CCCC(F)(F)[C@@H]2NC(=O)N2CCC(C)(c3noc([C@@H]4C[C@@H]4F)n3)CC2)n1 [Example 92, N-[(1R,6S)-2,2-difluoro-6-{[2-(propan-2-yl)pyrimidin-4-yl]oxy}cyclohexyl]-4-{5-[(1S,2S)-2-fluorocyclopropyl]-1,2,4-oxadiazol-3-yl}-4-methylpiperidine-1-carboxamide] | 16%
4 | CC(C)c1cn([C@H]2CCCC(F)(F)[C@@H]2NC(=O)N2CCC(C)(c3noc([C@@H]4C[C@@H]4F)n3)CC2)nn1 [Example 93, N-{(1R,6S)-2,2-difluoro-6-[4-(propan-2-yl)-1H-1,2,3-triazol-1-yl]cyclohexyl}-4-{5-[(1S,2S)-2-fluorocyclopropyl]-1,2,4-oxadiazol-3-yl}-4-methylpiperidine-1-carboxamide] | 365%
5 | CC(C)Cc1cn([C@H]2CCCC(F)(F)[C@@H]2NC(=O)N2CCC(C)(c3noc([C@@H]4C[C@@H]4F)n3)CC2)nn1 [Example 94, N-{(1R,6S)-2,2-difluoro-6-[4-(2-methylpropyl)-1H-1,2,3-triazol-1-yl]cyclohexyl}-4-{5-[(1S,2S)-2-fluorocyclopropyl]-1,2,4-oxadiazol-3-yl}-4-methylpiperidine-1-carboxamide] | 382%
6 | CC(C)N1CC[C@H](N(C)[C@H]2CCCC(F)(F)[C@@H]2NC(=O)N2CCC(C)(c3noc([C@@H]4C[C@@H]4F)n3)CC2)C1 [Example 95, N-[(1R,6S)-2,2-difluoro-6-{methyl[(3S)-1-(propan-2-yl)pyrrolidin-3-yl]amino}cyclohexyl]-4-{5-[(1S,2S)-2-fluorocyclopropyl]-1,2,4-oxadiazol-3-yl}-4-methylpiperidine-1-carboxamide] | 447%
7 | CC(C)N(C)[C@H]1CCN([C@H]2CCCC(F)(F)[C@@H]2NC(=O)N2CCC(C)(c3noc([C@@H]4C[C@@H]4F)n3)CC2)C1 [Example 96, N-[(1R,6S)-2,2-difluoro-6-{(3S)-3-[methyl(propan-2-yl)amino]pyrrolidin-1-yl}cyclohexyl]-4-{5-[(1S,2S)-2-fluorocyclopropyl]-1,2,4-oxadiazol-3-yl}-4-methylpiperidine-1-carboxamide] | 493%
8 | CC(C)N1CCN([C@H]2CCCC(F)(F)[C@@H]2NC(=O)N2CCC(C)(c3noc(C4CCC4)n3)CC2)CC1 [Example 97, 4-(5-cyclobutyl-1,2,4-oxadiazol-3-yl)-N-{(1R,6S)-2,2-difluoro-6-[4-(propan-2-yl)piperazin-1-yl]cyclohexyl}-4-methylpiperidine-1-carboxamide] | 486%
9 | CC(C)N1[C@@H]2CC[C@H]1C[C@H](O[C@H]1CCCC(F)(F)[C@@H]1NC(=O)N1CCC(C)(c3noc([C@@H]4C[C@@H]4F)n3)CC1)C2 [Example 98, N-[(1R,6S)-2,2-difluoro-6-{[(1R,3S,5S)-8-(propan-2-yl)-8-azabicyclo[3.2.1]octan-3-yl]oxy}cyclohexyl]-4-{5-[(1S,2S)-2-fluorocyclopropyl]-1,2,4-oxadiazol-3-yl}-4-methylpiperidine-1-carboxamide] | 271%
10 | CC(C)N(C)[C@H]1CCN([C@H]2CCCC(F)(F)[C@@H]2NC(=O)N2CCC(C)(c3noc(C4CC4)n3)CC2)C1 [Example 99, 4-(5-cyclopropyl-1,2,4-oxadiazol-3-yl)-N-[(1R,6S)-2,2-difluoro-6-{(3S)-3-[methyl(propan-2-yl)amino]pyrrolidin-1-yl}cyclohexyl]-4-methylpiperidine-1-carboxamide] | 499%
11 | CC(C)N1C[C@H]2CC[C@@H](C1)[C@H]2O[C@H]1CCCC(F)(F)[C@@H]1NC(=O)N1CCC(C)(c2noc([C@@H]3C[C@@H]3F)n2)CC1 [Example 100, N-[(1R,6S)-2,2-difluoro-6-{[(1R,5S,8R)-3-(propan-2-yl)-3-azabicyclo[3.2.1]octan-8-yl]oxy}cyclohexyl]-4-{5-[(1S,2S)-2-fluorocyclopropyl]-1,2,4-oxadiazol-3-yl}-4-methylpiperidine-1-carboxamide] | 340%
12 | CC(C)OC1CCN([C@H]2CCCC(F)(F)[C@@H]2NC(=O)N2CCC(C)(c3noc([C@@H]4C[C@@H]4F)n3)CC2)CC1 [Example 101, N-[(1R,6S)-2,2-difluoro-6-{4-[(propan-2-yl)oxy]piperidin-1-yl}cyclohexyl]-4-{5-[(1S,2S)-2-fluorocyclopropyl]-1,2,4-oxadiazol-3-yl}-4-methylpiperidine-1-carboxamide] | 326%
13 | CC(C)N1CC[C@H](O[C@H]2CCCC(F)(F)[C@@H]2NC(=O)N2CCC(C)(c3noc(C4CCC4)n3)CC2)C1 [Example 102, 4-(5-cyclobutyl-1,2,4-oxadiazol-3-yl)-N-[(1R,6S)-2,2-difluoro-6-{[(3S)-1-(propan-2-yl)pyrrolidin-3-yl]oxy}cyclohexyl]-4-methylpiperidine-1-carboxamide] | 374%
14 | CCC1(c2noc([C@@H]3C[C@@H]3F)n2)CCN(C(=O)N[C@@H]2[C@@H](O[C@H]3CCN(C(C)C)C3)CCCC2(F)F)CC1 [Example 103, N-[(1R,6S)-2,2-difluoro-6-{[(3S)-1-(propan-2-yl)pyrrolidin-3-yl]oxy}cyclohexyl]-4-ethyl-4-{5-[(1S,2S)-2-fluorocyclopropyl]-1,2,4-oxadiazol-3-yl}piperidine-1-carboxamide] | 369%
15 | CC(C)N1C[C@H]2CC[C@@H](C1)[C@@H]2O[C@H]1CCCC(F)(F)[C@@H]1NC(=O)N1CCC(C)(c2noc([C@@H]3C[C@@H]3F)n2)CC1 [Example 104, N-[(1R,6S)-2,2-difluoro-6-{[(1R,5S,8S)-3-(propan-2-yl)-3-azabicyclo[3.2.1]octan-8-yl]oxy}cyclohexyl]-4-{5-[(1S,2S)-2-fluorocyclopropyl]-1,2,4-oxadiazol-3-yl}-4-methylpiperidine-1-carboxamide] | 289%
16 | CC(C)N1[C@@H]2CC[C@H]1C[C@@H](O[C@H]1CCCC(F)(F)[C@@H]1NC(=O)N1CCC(C)(c3noc([C@@H]4C[C@@H]4F)n3)CC1)C2 [Example 105, N-[(1R,6S)-2,2-difluoro-6-{[(1R,3R,5S)-8-(propan-2-yl)-8-azabicyclo[3.2.1]octan-3-yl]oxy}cyclohexyl]-4-{5-[(1S,2S)-2-fluorocyclopropyl]-1,2,4-oxadiazol-3-yl}-4-methylpiperidine-1-carboxamide] | 359%
17 | CC(C)N1C[C@@H]2[C@H](C1)[C@H]2O[C@H]1CCCC(F)(F)[C@@H]1NC(=O)N1CCC(C)(c2noc([C@@H]3C[C@@H]3F)n2)CC1 [Example 106, N-[(1R,6S)-2,2-difluoro-6-{[(1R,5S,6S)-3-(propan-2-yl)-3-azabicyclo[3.1.0]hexan-6-yl]oxy}cyclohexyl]-4-{5-[(1S,2S)-2-fluorocyclopropyl]-1,2,4-oxadiazol-3-yl}-4-methylpiperidine-1-carboxamide] | 220%
18 | CC(C)CN1CC[C@H](O[C@H]2CCCC(F)(F)[C@@H]2NC(=O)N2CCC(C)(c3noc([C@@H]4C[C@@H]4F)n3)CC2)C1 [Example 107, N-[(1R,6S)-2,2-difluoro-6-{[(3S)-1-(2-methylpropyl)pyrrolidin-3-yl]oxy}cyclohexyl]-4-{5-[(1S,2S)-2-fluorocyclopropyl]-1,2,4-oxadiazol-3-yl}-4-methylpiperidine-1-carboxamide] | 363%
19 | CO[C@@H]1CN(C(C)C)C[C@H]1O[C@H]1CCCC(F)(F)[C@@H]1NC(=O)N1CCC(C)(c2noc([C@@H]3C[C@@H]3F)n2)CC1 [Example 108, N-[(1R,6S)-2,2-difluoro-6-{[(3R,4R)-4-methoxy-1-(propan-2-yl)pyrrolidin-3-yl]oxy}cyclohexyl]-4-{5-[(1S,2S)-2-fluorocyclopropyl]-1,2,4-oxadiazol-3-yl}-4-methylpiperidine-1-carboxamide] | 292%
